Where a SMILES comes first, the peptide text is derived from it. [ ]: non-standard residue; d: D form. Cya = N[C@@H](CS(=O)(=O)O)C(=O)O
System: Primary human immune cells (PBMC)
Test: RNA-seq gene expression in primary human immune cells after risuteganib
Type: cell-based
Settings: 100 μM, 8 hours
Description: Purpose: In this study, RNA-seq was used to unbiasedly identify the genes regulated by risuteganib exposure in primary human immune cells. Analysis of the specific subset of genes regulated by risuteganib enables identification of biological processes and pathways modulated by the oligopeptide Methods: Primary human immune cells (PBMC) were obtained from a single human donor. The cells were separated into two groups: vehicle or 100 μM risuteganib treatment for 8 hours. After exposure, cells were collected and their total RNA isolated for RNA-seq. The generated reads were then aligned to human reference genome/transcriptome and gene expression quantified for differential expression analysis and fold change calculation. The list of regulated genes was then used to identify biological processes and pathways that are regulated after Risuteganib exposure compared to vehicle control.

C[C@@H](O)[C@H](NC(=O)[C@H](CS(=O)(=O)O)NC(=O)CNC(=O)[C@H](CCCNC(=N)N)NC(=O)CN)C(=O)N1CCC[C@H]1C(=O)O [Risuteganib, Glycyl-L-arginylglycyl-3-sulfo-L-alanyl-L-threonyl-L-proline] (H-GRG[Cya]TP-OH)
ADAM8 Mean Expression Rate (Normalized as Fraction Control): 0.9708 | ADGRB1 Mean Expression Rate (Normalized as Fraction Control): 0.8444 | ADGRE2 Mean Expression Rate (Normalized as Fraction Control): 0.923 | ADGRG3 Mean Expression Rate (Normalized as Fraction Control): 0.8381 | AGER Mean Expression Rate (Normalized as Fraction Control): 0.9136 | AKIRIN2 Mean Expression Rate (Normalized as Fraction Control): 0.9697 | ALDH3B1 Mean Expression Rate (Normalized as Fraction Control): 0.8912 | ANPEP Mean Expression Rate (Normalized as Fraction Control): 0.9082 | ARRB2 Mean Expression Rate (Normalized as Fraction Control): 0.9014 | ARSA Mean Expression Rate (Normalized as Fraction Control): 0.9239 | ATP6V0A1 Mean Expression Rate (Normalized as Fraction Control): 0.9432 | BAG6 Mean Expression Rate (Normalized as Fraction Control): 0.9522 | BCL3 Mean Expression Rate (Normalized as Fraction Control): 0.8918 | BRI3 Mean Expression Rate (Normalized as Fraction Control): 0.9397 | CCL2 Mean Expression Rate (Normalized as Fraction Control): 0.9143 | CCL3L1 Mean Expression Rate (Normalized as Fraction Control): 0.8739 | CCL4L2 Mean Expression Rate (Normalized as Fraction Control): 0.9389 | CCL4 Mean Expression Rate (Normalized as Fraction Control): 0.9605 | CCL22 Mean Expression Rate (Normalized as Fraction Control): 0.9197 | CD14 Mean Expression Rate (Normalized as Fraction Control): 0.8899 | CD63 Mean Expression Rate (Normalized as Fraction Control): 0.9487 | CD300A Mean Expression Rate (Normalized as Fraction Control): 0.9137 | CDC37 Mean Expression Rate (Normalized as Fraction Control): 0.935 | CEBPB Mean Expression Rate (Normalized as Fraction Control): 0.8752 | CKAP4 Mean Expression Rate (Normalized as Fraction Control): 0.9133 | CLCF1 Mean Expression Rate (Normalized as Fraction Control): 0.8975 | CSF1 Mean Expression Rate (Normalized as Fraction Control): 0.8841 | CSF3 Mean Expression Rate (Normalized as Fraction Control): 0.8615 | CSTB Mean Expression Rate (Normalized as Fraction Control): 0.9649 | CTSA Mean Expression Rate (Normalized as Fraction Control): 0.941 | CTSD Mean Expression Rate (Normalized as Fraction Control): 0.9173 | CXCL1 Mean Expression Rate (Normalized as Fraction Control): 0.9216 | CXCL2 Mean Expression Rate (Normalized as Fraction Control): 0.8524 | CXCL16 Mean Expression Rate (Normalized as Fraction Control): 0.9326 | CYB5R3 Mean Expression Rate (Normalized as Fraction Control): 0.9564 | CYBA Mean Expression Rate (Normalized as Fraction Control): 0.8869 | CYP27B1 Mean Expression Rate (Normalized as Fraction Control): 0.8623 | DGAT1 Mean Expression Rate (Normalized as Fraction Control): 0.9308 | DNAJC5 Mean Expression Rate (Normalized as Fraction Control): 0.969 | DOK3 Mean Expression Rate (Normalized as Fraction Control): 0.8929 | DYSF Mean Expression Rate (Normalized as Fraction Control): 0.8587 | ERCC1 Mean Expression Rate (Normalized as Fraction Control): 0.8784 | FABP5 Mean Expression Rate (Normalized as Fraction Control): 0.8713 | FCER1G Mean Expression Rate (Normalized as Fraction Control): 0.9289 | FCER2 Mean Expression Rate (Normalized as Fraction Control): 0.7686 | FCGRT Mean Expression Rate (Normalized as Fraction Control): 0.8558 | FGR Mean Expression Rate (Normalized as Fraction Control): 0.9222 | FOS Mean Expression Rate (Normalized as Fraction Control): 0.822 | GAA Mean Expression Rate (Normalized as Fraction Control): 0.9121 | GALNS Mean Expression Rate (Normalized as Fraction Control): 0.9356 | GLA Mean Expression Rate (Normalized as Fraction Control): 0.9639 | GPR84 Mean Expression Rate (Normalized as Fraction Control): 0.9231 | GPX1 Mean Expression Rate (Normalized as Fraction Control): 0.9254 | GRN Mean Expression Rate (Normalized as Fraction Control): 0.9221 | HEXIM1 Mean Expression Rate (Normalized as Fraction Control): 0.9653 | HIST2H2BE Mean Expression Rate (Normalized as Fraction Control): 0.8527 | HLA-DPB1 Mean Expression Rate (Normalized as Fraction Control): 0.9295 | HLA-DQB1 Mean Expression Rate (Normalized as Fraction Control): 0.9554 | HLX Mean Expression Rate (Normalized as Fraction Control): 0.9084 | HRAS Mean Expression Rate (Normalized as Fraction Control): 0.9238 | IFI30 Mean Expression Rate (Normalized as Fraction Control): 0.8318 | IGHD Mean Expression Rate (Normalized as Fraction Control): 0.8731 | IGLC2 Mean Expression Rate (Normalized as Fraction Control): 0.8467 | IGLV2-23 Mean Expression Rate (Normalized as Fraction Control): 0.4503 | IL1RN Mean Expression Rate (Normalized as Fraction Control): 0.8469 | IL4R Mean Expression Rate (Normalized as Fraction Control): 0.9748 | IL6 Mean Expression Rate (Normalized as Fraction Control): 0.9281 | IRF5 Mean Expression Rate (Normalized as Fraction Control): 0.9293 | ITGAL Mean Expression Rate (Normalized as Fraction Control): 0.9842 | ITGAM Mean Expression Rate (Normalized as Fraction Control): 0.9473 | ITGAX Mean Expression Rate (Normalized as Fraction Control): 0.8865 | KCNAB2 Mean Expression Rate (Normalized as Fraction Control): 0.9588 | KCNN4 Mean Expression Rate (Normalized as Fraction Control): 0.9127 | LFNG Mean Expression Rate (Normalized as Fraction Control): 0.9734 | LIF Mean Expression Rate (Normalized as Fraction Control): 0.7939 | LILRB3 Mean Expression Rate (Normalized as Fraction Control): 0.9396 | LILRB4 Mean Expression Rate (Normalized as Fraction Control): 0.897 | LIMK1 Mean Expression Rate (Normalized as Fraction Control): 0.9285 | LRP1 Mean Expression Rate (Normalized as Fraction Control): 0.9405 | LTB4R Mean Expression Rate (Normalized as Fraction Control): 0.834 | LTBR Mean Expression Rate (Normalized as Fraction Control): 0.9644 | MAN2B1 Mean Expression Rate (Normalized as Fraction Control): 0.9706 | MAP2K7 Mean Expression Rate (Normalized as Fraction Control): 0.9421 | MCEMP1 Mean Expression Rate (Normalized as Fraction Control): 0.86 | MCOLN1 Mean Expression Rate (Normalized as Fraction Control): 0.9403 | MMP9 Mean Expression Rate (Normalized as Fraction Control): 0.9125 | MMP25 Mean Expression Rate (Normalized as Fraction Control): 0.8959 | MT2A Mean Expression Rate (Normalized as Fraction Control): 0.9216 | MUCL1 Mean Expression Rate (Normalized as Fraction Control): 0.6866 | MYO1G Mean Expression Rate (Normalized as Fraction Control): 0.9214 | NBEAL2 Mean Expression Rate (Normalized as Fraction Control): 0.9432 | NCF4 Mean Expression Rate (Normalized as Fraction Control): 0.9433 | NECTIN2 Mean Expression Rate (Normalized as Fraction Control): 0.9479 | NFAM1 Mean Expression Rate (Normalized as Fraction Control): 0.8948 | NFKB2 Mean Expression Rate (Normalized as Fraction Control): 0.9675 | NFKBID Mean Expression Rate (Normalized as Fraction Control): 0.9203 | NPLOC4 Mean Expression Rate (Normalized as Fraction Control): 0.9748 | NRROS Mean Expression Rate (Normalized as Fraction Control): 0.9202 | ORAI1 Mean Expression Rate (Normalized as Fraction Control): 0.9714 | OSCAR Mean Expression Rate (Normalized as Fraction Control): 0.772 | OSM Mean Expression Rate (Normalized as Fraction Control): 0.8306 | OTUB1 Mean Expression Rate (Normalized as Fraction Control): 0.9445 | PDXK Mean Expression Rate (Normalized as Fraction Control): 0.973 | PFKL Mean Expression Rate (Normalized as Fraction Control): 0.9804 | PI3 Mean Expression Rate (Normalized as Fraction Control): 0.9158 | PILRA Mean Expression Rate (Normalized as Fraction Control): 0.9457 | PLAUR Mean Expression Rate (Normalized as Fraction Control): 0.9104 | PLD2 Mean Expression Rate (Normalized as Fraction Control): 0.9215 | PRAM1 Mean Expression Rate (Normalized as Fraction Control): 0.8661 | PRKCD Mean Expression Rate (Normalized as Fraction Control): 0.9631 | PSTPIP1 Mean Expression Rate (Normalized as Fraction Control): 0.9409 | QSOX1 Mean Expression Rate (Normalized as Fraction Control): 0.9355 | RAB5C Mean Expression Rate (Normalized as Fraction Control): 0.9246 | RAC2 Mean Expression Rate (Normalized as Fraction Control): 0.9763 | RAPGEF1 Mean Expression Rate (Normalized as Fraction Control): 0.9459 | RARA Mean Expression Rate (Normalized as Fraction Control): 0.8926 | RELB Mean Expression Rate (Normalized as Fraction Control): 0.9647 | RHOG Mean Expression Rate (Normalized as Fraction Control): 0.9592 | RNF19B Mean Expression Rate (Normalized as Fraction Control): 0.9469 | S100A11 Mean Expression Rate (Normalized as Fraction Control): 0.9492 | SH2B2 Mean Expression Rate (Normalized as Fraction Control): 0.879 | SIRPA Mean Expression Rate (Normalized as Fraction Control): 0.9657 | SLC11A1 Mean Expression Rate (Normalized as Fraction Control): 0.8842 | SLC26A6 Mean Expression Rate (Normalized as Fraction Control): 0.9452 | SOCS1 Mean Expression Rate (Normalized as Fraction Control): 0.9289 | SP2 Mean Expression Rate (Normalized as Fraction Control): 0.9613 | SRC Mean Expression Rate (Normalized as Fraction Control): 0.9483 | STK10 Mean Expression Rate (Normalized as Fraction Control): 0.9606 | STX4 Mean Expression Rate (Normalized as Fraction Control): 0.949 | STXBP2 Mean Expression Rate (Normalized as Fraction Control): 0.8885 | SUPT6H Mean Expression Rate (Normalized as Fraction Control): 0.9568 | TCIRG1 Mean Expression Rate (Normalized as Fraction Control): 0.892 | TFE3 Mean Expression Rate (Normalized as Fraction Control): 0.9731 | TICAM1 Mean Expression Rate (Normalized as Fraction Control): 0.9382 | TNF Mean Expression Rate (Normalized as Fraction Control): 0.9281 | TNFRSF1B Mean Expression Rate (Normalized as Fraction Control): 0.9604 | TNFRSF4 Mean Expression Rate (Normalized as Fraction Control): 0.9427 | TNFRSF13B Mean Expression Rate (Normalized as Fraction Control): 0.8508 | TNFRSF14 Mean Expression Rate (Normalized as Fraction Control): 0.9239 | TNFSF9 Mean Expression Rate (Normalized as Fraction Control): 0.8416 | TOM1 Mean Expression Rate (Normalized as Fraction Control): 0.9211 | TRAF3IP2 Mean Expression Rate (Normalized as Fraction Control): 0.9472 | TREM1 Mean Expression Rate (Normalized as Fraction Control): 0.9084 | TRPM2 Mean Expression Rate (Normalized as Fraction Control): 0.9391 | TYK2 Mean Expression Rate (Normalized as Fraction Control): 0.9711 | TYROBP Mean Expression Rate (Normalized as Fraction Control): 0.9329 | UNC13D Mean Expression Rate (Normalized as Fraction Control): 0.9577 | ZC3H12A Mean Expression Rate (Normalized as Fraction Control): 0.9757 | ZP3 Mean Expression Rate (Normalized as Fraction Control): 0.8491 | ZYX Mean Expression Rate (Normalized as Fraction Control): 0.9139 | genes associated with TNF-a pro-inflammatory pathway (pathway analysis) (adjusted p-value=6.22E-3): down-regulated | NA Mean Expression Rate (Normalized as Fraction Control) (gene printed as NA): 0.9077
